Assay results from PMC5684361, “Selectivity and ligand-based molecular modeling of an odorant-binding protein from the leaf beetle Ambrostoma quadriimpressum (Coleoptera: Chrysomelidae) in relation to habitat-related volatiles” (Scientific Reports, 2017).
“Also recorded” adds a separate entry of the source. Where two headings read alike, the source gives them in different places.

Key:
[1] = target: AquaOBP4; test: Fluorescence competitive binding assay with 1-NPN reporter; set-up: species or system Ambrostoma quadriimpressum; settings: for binding to AquaOBP4 (1-NPN displacement): first-round screening
From the text: Binding affinity was primarily tested with a panel of 40 A. quadriimpressum habitat-related compounds, most of which are abundantly distributed in elms and A. quadriimpressum. Additionally, one newly identified repellent, cinnamaldehyde, was included[25],[27],[28]. After the molecular model of AquaOBP4 was established, we selected two additional compounds, which also came from elms and A. quadriimpressum, for model validation. All of the compounds were purchased from Sigma-Aldrich (Millipore Sigma, USA) with purities of greater than 95%. The CAS numbers, structures and sources of the tested compounds are listed in Table 2, and detailed information (including content) for each odorant is provided in Table S1.
N-phenyl-1-naphthylamine (1-NPN) was used as a reporter to measure the affinity of the fluorescent 1-NPN ligand to proteins. The fluorescence spectra were recorded using a Fluoromax-4 spectrofluorometer (HORIBA Jobin Yvon, New York, USA) with 2 µM protein in 50 mM ammonium acetate (pH 7.2) at room temperature; the compounds and 1-NPN were dissolved in high-performance liquid chromatography (HPLC)-grade methanol at a concentration of 1 mM. Parameter selection was such that the slit widths for both excitation and emission were 10 nm. The reporter was excited at 337 nm, and the emission spectra were recorded between 380 and 500 nm. The AquaOBP4 saturation curve was tested using 1-NPN at 2 to 14 µM, and the affinities of the compounds were estimated using 2 µM 1-NPN and 10 to 70 µM concentrations of the compounds. The curves were then linearized using Scatchard plots. IC50 and Kd values were analyzed using Prism 6 (GraphPad Software, USA), and Ki values were calculated using the following equation: Ki = [IC50]/1 + [1-NPN]/Kd, where [1-NPN] is the concentration of dissociative 1-NPN and Kd is the dissociation constant of the protein/1-NPN complex. To investigate the response of AquaOBP4 at low pH, the fluorescence binding affinity between AquaOBP4 and one of the best ligands was measured at pH 5. Then, 50 mM ammonium acetate (pH 5) was used as a buffer to dissolve the AquaOBP4 protein.

[2] = test system: antennae of A. quadriimpressum; test: Electroantennogram (EAG) responses of binding odorants; assay type: in vivo, Ambrostoma quadriimpressum; settings: 0.1, 1 and 10 µg/µl in paraffin oil; normalized to negative control
[3] = test system: A. quadriimpressum adults; test: Y-tube olfactometer behavioral test; assay type: in vivo, Ambrostoma quadriimpressum; settings: 10 µg/µl in paraffin oil (methods), 1 µg/µl; vs paraffin oil control; N = 90
Description: The responses of A. quadriimpressum to the three best ligands were assessed in a Y-tube olfactometer. The compounds were tested at an intermediate concentration of 10 µg/µl in paraffin oil. In these assays, 20 μl of the odorant was applied to a piece of filter paper (25 × 25 mm), which was then placed in one of the olfactometer arms. In the other arm, 20 μl of paraffin oil was used as a negative control. Thirty beetles (15 males and 15 females) were individually tested, with three replicates for each individual (for a total of 90 replicates). A red light source was used in the darkroom to avoid light interference. For the Y-tube (1-cm diameter, 100-cm base length, 10-cm arm length), one small hole was cut into the base of the Y-tube at 10 cm for releasing beetles. The source of the air that passed through the Y-tube was a pressurized tank of pure air. The air was first filtered through active carbon and then humidified by bubbling it through a bottle filled with double-distilled (dd) water before entering the Y-tube. The air flow traveled through both arms of the Y-tube olfactometer at a speed of 300 ml/min. Each individual beetle was placed at the entrance of the olfactometer (Fig. 1), and their “choice” was recorded when the beetle entered an arm and remained there for 30 s. If an insect made no choice within 3 min, the result was recorded as “no-choice”. […]

[4] = test system: A. quadriimpressum; set-up: method as in doi:10.1653/024.099.0212; settings: cited from earlier work
[5] = test system: antennae of A. quadriimpressum; set-up: method as in previous results of the authors; settings: ref previous results of the authors; cited from earlier work
[6] = Table 3, pH 7.2, 2 µM 1-NPN, 2 µM protein, compounds 10 to 70 µM
[7] = Table 3 and text, pH 7.2, 2 µM 1-NPN, calculated from IC50

Molecule | pKi ([1]; Table 4) | IC50 ([1]; Table 4, pH 7.2, 2 µM 1-NPN) | Ki ([1]; Table 4, pH 7.2, 2 µM 1-NPN) | binding to AquaOBP4 (1-NPN displacement) ([1]; pH 7.2) | IC50 [1, 6] | Ki [1, 7] | other results
CCCCCCCCOC(=O)c1ccccc1C(=O)OCCCC [Butyl octyl phthalate] | 4.90 | 23.9 µM | 12.7 µM | – | – | – | Ki ([1]; Figure 6 legend, 1-NPN 2 μM): 12.7 µM; Ki ([1]; pH 5): 16.8 µM; EAG response [2]: strong EAG responses
COC(=O)c1ccccc1 [Methyl benzoate] | – | – | – | did not bind; also recorded: no binding | – | – | –
CC(=O)Oc1ccccc1 [Acetic acid, Phenyl ester] | – | – | – | did not bind | – | – | –
Isoeugenol | 3.77 | 321 µM | 171 µM | – | – | – | –
CC(=O)/C=C/C1=C(C)CCCC1(C)C [β-Ionone] | 4.52 | 56.6 µM | – | – | 56.6 µM | 30.1 µM | –
CCCCOC(=O)c1ccccc1C(=O)OCCCC [Dibutyl phthalate] | 4.62 | 45.6 µM | – | – | 45.6 µM | 24.2 µM | attraction of A. quadriimpressum adults in Y-tube olfactometer [3]: slightly higher attractiveness; EAG response [2]: strong EAG responses
COC(=O)c1ccccc1O [Methyl salicylate] | – | – | – | did not bind | – | – | –
CC(C)COC(=O)c1ccccc1C(=O)OCC(C)C [Diisobutyl phthalate] | 4.57 | 50.4 µM | 26.8 µM | – | 50.4 µM | 26.8 µM | EAG response [2]: strong EAG responses
O=C/C=C/c1ccccc1 [Cinnamaldehyde] | 4.10 | 149 µM | 79.3 µM | – | 149 µM | 79.3 µM | repellent / antifeedant effect against A. quadriimpressum [4]: strong repellent; repellent / antifeedant effect against A. quadriimpressum ([4]; listed as cinnamaldehyde): antifeedant; physiological response on the antennae of A. quadriimpressum [5]: strong physiological response
CC/C=C\CCOC(C)=O [Leaf acetate] | – | – | – | no binding | – | – | –
CC/C=C\CCOC(=O)c1ccccc1 [cis-3-Hexenyl benzoate] | 4.46 | 65.8 µM | – | – | 65.8 µM | 35 µM | –
c1ccc(Nc2cccc3ccccc23)cc1 [1-NPN, N-phenyl-1-naphthylamine, reference compound] | – | – | – | – | – | – | Kd ([1]; pH 5): 1.49 ± 0.08 µM; Kd ([1]; pH 7.2, 2 µM protein, 1-NPN 2 to 14 µM): 2.27 ± 0.16 µM
